Patent publication US12077537B2 (Gilead Sciences, Inc., priority 2020, dated 2024)

What follows are compounds tested on HIV-IIIb (assay: Antiviral assay in MT4 cells). Conditions: Human immunodeficiency virus 1, MT4, 120 h; MT-4 cells mixed with HIV-IIIb at m.o.i. 0.003; 5 days at 37° C.; CellTiter-Glo luminescence; 50% decrease in signal, a measure of HIV-1 replication.
Format: cell-based
Experimental: Antiviral Assay in MT4 Cells For the antiviral assay, 40 μL of a concentration required to achieve a final effective 1× test concentration of 3-fold serially diluted compound in culture medium with 10% FBS was added to each well of a 384-well plate (10 concentrations) in quadruplicate. MT-4 cells were next mixed with HIV-IIIb at an m.o.i of 0.003 for 1 hour, after which time 35 μL of virus/cell mixture (2000 cells) was immediately added to each well containing 40 μL of diluted compound. The plates were then incubated at 37° C. for 5 days. After 5 days of incubation, 25 μl of 2× concentrated CellTiter-Glom Reagent (catalog #G7571, Promega Biosciences, Inc., Madison, WI) was added to each well containing MT-4 cells. Cell lysis was carried out by incubating at room temperature for 10 min and then chemiluminescence was read.

| Structure (SMILES) | EC50 |
| --- | --- |
| CN(C)CCNc1nc2nc(C(Cc3cc(F)cc(F)c3)NC(=O)Cn3nc(C(F)F)c4c3C(F)(F)CCC4(F)F)c(-c3ccc(F)c(C#N)c3)cc2s1 (stereo not drawn) [Compound 21, N-(1-(6-(3-cyano-4-fluorophenyl)-2-((2-(dimethylamino)ethyl)amino)thiazolo[4,5-b]pyridin-5-yl)-2-(3,5-difluorophenyl)ethyl)-2-(3-(difluoromethyl)-4,4,7,7-tetrafluoro-4,5,6,7-tetrahydro-1H-indazol-1-yl)acetamide] | ≥ 53200 nM |
| CC(C)(O)C#CC1(Cl)Nc2nc(C(Cc3cc(F)cc(F)c3)NC(=O)Cn3nc(C(F)F)c4c3C(F)(F)CCC4(F)F)c(-c3ccc(F)c(C(N)=O)c3)cc2S1 (stereo not drawn) [Compound 22, 5-(2-chloro-5-(1-(2-(3-(difluoromethyl)-4,4,7,7-tetrafluoro-4,5,6,7-tetrahydro-1H-indazol-1-yl)acetamido)-2-(3,5-difluorophenyl)ethyl)-2-(3-hydroxy-3-methylbut-1-yn-1-yl)-2,3-dihydrothiazolo[4,5-b]pyridin-6-yl)-2-fluorobenzamide] | 184 nM |
| O=C(Cn1nc(C(F)F)c2c1C(F)(F)[C@@H]1C[C@H]21)N[C@@H](Cc1cc(F)cc(F)c1)c1ccc2sc(-c3ccc4c(c3)C(=O)NC4)nc2n1 [Compound 23-1, 2-((3bS,4aR)-3-(difluoromethyl)-5,5-difluoro-3b,4,4a,5-tetrahydro-1H-cyclopropa[3,4]cyclopenta[1,2-c]pyrazol-1-yl)-N—((S)-2-(3,5-difluorophenyl)-1-(2-(3-oxoisoindolin-5-yl)thiazolo[4,5-b]pyridin-5-yl)ethyl)acetamide] | 1930 nM |
| CSc1nc2nc([C@H](Cc3cc(F)cc(F)c3)NC(=O)Cn3nc(C(F)F)c4c3C(F)(F)[C@@H]3C[C@H]43)c(-c3ccc4c(c3)C(=O)NC4)cc2s1 [Compound 23-2, 2-((3bS,4aR)-3-(difluoromethyl)-5,5-difluoro-3b,4,4a,5-tetrahydro-1H-cyclopropa[3,4]cyclopenta[1,2-c]pyrazol-1-yl)-N—((S)-2-(3,5-difluorophenyl)-1-(2-(methylthio)-6-(3-oxoisoindolin-5-yl)thiazolo[4,5-b]pyridin-5-yl)ethyl)acetamide] | 984 nM |
| NC(=O)c1cc(-c2cc3sc(N4CCN(C5COC5)CC4)nc3nc2[C@H](Cc2cc(F)cc(F)c2)NC(=O)Cn2nc(C(F)(F)F)c3c2C(F)(F)[C@@H]2C[C@H]32)ccc1F [Compound 24, 5-(5-((S)-1-(2-((3bS,4aR)-5,5-difluoro-3-(trifluoromethyl)-3b,4,4a,5-tetrahydro-1H-cyclopropa[3,4]cyclopenta[1,2-c]pyrazol-1-yl)acetamido)-2-(3,5-difluorophenyl)ethyl)-2-(4-(oxetan-3-yl)piperazin-1-yl)thiazolo[4,5-b]pyridin-6-yl)-2-fluorobenzamide] | 32.7 nM |
| NC(=O)c1cc(-c2cc3sc(N4CCN(c5cncnc5)CC4)nc3nc2[C@H](Cc2cc(F)cc(F)c2)NC(=O)Cn2nc(C(F)(F)F)c3c2C(F)(F)[C@@H]2C[C@H]32)ccc1F [Compound 25, 5-(5-((S)-1-(2-((3bS,4aR)-5,5-difluoro-3-(trifluoromethyl)-3b,4,4a,5-tetrahydro-1H-cyclopropa[3,4]cyclopenta[1,2-c]pyrazol-1-yl)acetamido)-2-(3,5-difluorophenyl)ethyl)-2-(4-(pyrimidin-5-yl)piperazin-1-yl)thiazolo[4,5-b]pyridin-6-yl)-2-fluorobenzamide] | 111 nM |
| NC(=O)c1cc(-c2cc3sc(N4CCN(c5ccncc5)CC4)nc3nc2[C@H](Cc2cc(F)cc(F)c2)NC(=O)Cn2nc(C(F)(F)F)c3c2C(F)(F)[C@@H]2C[C@H]32)ccc1F [Compound 26, 5-(5-((S)-1-(2-((3bS,4aR)-5,5-difluoro-3-(trifluoromethyl)-3b,4,4a,5-tetrahydro-1H-cyclopropa[3,4]cyclopenta[1,2-c]pyrazol-1-yl)acetamido)-2-(3,5-difluorophenyl)ethyl)-2-(4-(pyridin-4-yl)piperazin-1-yl)thiazolo[4,5-b]pyridin-6-yl)-2-fluorobenzamide] | 114 nM |
| NC(=O)c1cc(-c2cc3sc(N4C[C@@H]5C[C@H]4CN5C4COC4)nc3nc2[C@H](Cc2cc(F)cc(F)c2)NC(=O)Cn2nc(C(F)(F)F)c3c2C(F)(F)[C@@H]2C[C@H]32)ccc1F [Compound 27, 5-(5-((S)-1-(2-((3bS,4aR)-5,5-difluoro-3-(trifluoromethyl)-3b,4,4a,5-tetrahydro-1H-cyclopropa[3,4]cyclopenta[1,2-c]pyrazol-1-yl)acetamido)-2-(3,5-difluorophenyl)ethyl)-2-((1S,4S)-5-(oxetan-3-yl)-2,5-diazabicyclo[2.2.1]heptan-2-yl)thiazolo[4,5-b]pyridin-6-yl)-2-fluorobenzamide] | 52.3 nM |
| NC(=O)c1cc(-c2cc3sc(N4CCN(c5ccc(-c6ncc[nH]6)cc5)CC4)nc3nc2[C@H](Cc2cc(F)cc(F)c2)NC(=O)Cn2nc(C(F)(F)F)c3c2C(F)(F)[C@@H]2C[C@H]32)ccc1F [Compound 28-1, 5-(2-(4-(4-(1H-imidazol-2-yl)phenyl)piperazin-1-yl)-5-((S)-1-(2-((3bS,4aR)-5,5-difluoro-3-(trifluoromethyl)-3b,4,4a,5-tetrahydro-1H-cyclopropa[3,4]cyclopenta[1,2-c]pyrazol-1-yl)acetamido)-2-(3,5-difluorophenyl)ethyl)thiazolo[4,5-b]pyridin-6-yl)-2-fluorobenzamide] | 300 nM |
| C[Si](C)(C)CCn1ccnc1-c1ccc(N2CCN(c3nc4nc([C@H](Cc5cc(F)cc(F)c5)NC(=O)Cn5nc(C(F)(F)F)c6c5C(F)(F)[C@@H]5C[C@H]65)c(-c5ccc(F)c(C(N)=O)c5)cc4s3)CC2)cc1 [Compound 28-2, 5-(5-((S)-1-(2-((3bS,4aR)-5,5-difluoro-3-(trifluoromethyl)-3b,4,4a,5-tetrahydro-1H-cyclopropa[3,4]cyclopenta[1,2-c]pyrazol-1-yl)acetamido)-2-(3,5-difluorophenyl)ethyl)-2-(4-(4-(1-(2-(trimethylsilyl)ethyl)-1H-imidazol-2-yl)phenyl)piperazin-1-yl)thiazolo[4,5-b]pyridin-6-yl)-2-fluorobenzamide] | ≥ 53200 nM |
| NC(=O)c1cc(-c2cc3sc(N4CCC5(CC4)CNC(=O)O5)nc3nc2[C@H](Cc2cc(F)cc(F)c2)NC(=O)Cn2nc(C(F)(F)F)c3c2C(F)(F)[C@@H]2C[C@H]32)ccc1F [Compound 29, 5-(5-((S)-1-(2-((3bS,4aR)-5,5-difluoro-3-(trifluoromethyl)-3b,4,4a,5-tetrahydro-1H-cyclopropa[3,4]cyclopenta[1,2-c]pyrazol-1-yl)acetamido)-2-(3,5-difluorophenyl)ethyl)-2-(2-oxo-1-oxa-3,8-diazaspiro[4.5]decan-8-yl)thiazolo[4,5-b]pyridin-6-yl)-2-fluorobenzamide] | 121 nM |
| CC1CN(c2nc3nc([C@H](Cc4cc(F)cc(F)c4)NC(=O)Cn4nc(C(F)(F)F)c5c4C(F)(F)[C@@H]4C[C@H]54)c(-c4ccc(F)c(C(N)=O)c4)cc3s2)CC(C)N1C1COC1 (stereo partly drawn) [Compound 30, 5-(5-((S)-1-(2-((3bS,4aR)-5,5-difluoro-3-(trifluoromethyl)-3b,4,4a,5-tetrahydro-1H-cyclopropa[3,4]cyclopenta[1,2-c]pyrazol-1-yl)acetamido)-2-(3,5-difluorophenyl)ethyl)-2-(3,5-dimethyl-4-(oxetan-3-yl)piperazin-1-yl)thiazolo[4,5-b]pyridin-6-yl)-2-fluorobenzamide] | 47.3 nM |
| NC(=O)c1cc(-c2cc3sc(N4CCn5cnnc5C4)nc3nc2[C@H](Cc2cc(F)cc(F)c2)NC(=O)Cn2nc(C(F)(F)F)c3c2C(F)(F)[C@@H]2C[C@H]32)ccc1F [Compound 31, 5-(5-((S)-1-(2-((3bS,4aR)-5,5-difluoro-3-(trifluoromethyl)-3b,4,4a,5-tetrahydro-1H-cyclopropa[3,4]cyclopenta[1,2-c]pyrazol-1-yl)acetamido)-2-(3,5-difluorophenyl)ethyl)-2-(5,6-dihydro-[1,2,4]triazolo[4,3-a]pyrazin-7(8H)-yl)thiazolo[4,5-b]pyridin-6-yl)-2-fluorobenzamide] | 466 nM |
| CC1(O)CN(c2nc3nc([C@H](Cc4cc(F)cc(F)c4)NC(=O)Cn4nc(C(F)(F)F)c5c4C(F)(F)[C@@H]4C[C@H]54)c(-c4ccc(F)c(C(N)=O)c4)cc3s2)C1 [Compound 32, 5-(5-((S)-1-(2-((3bS,4aR)-5,5-difluoro-3-(trifluoromethyl)-3b,4,4a,5-tetrahydro-1H-cyclopropa[3,4]cyclopenta[1,2-c]pyrazol-1-yl)acetamido)-2-(3,5-difluorophenyl)ethyl)-2-(3-hydroxy-3-methylazetidin-1-yl)thiazolo[4,5-b]pyridin-6-yl)-2-fluorobenzamide] | 60.6 nM |
| NC(=O)c1cc(-c2cc3sc(N4CCNC(=O)C4)nc3nc2[C@H](Cc2cc(F)cc(F)c2)NC(=O)Cn2nc(C(F)(F)F)c3c2C(F)(F)[C@@H]2C[C@H]32)ccc1F [Compound 33, 5-(5-((S)-1-(2-((3bS,4aR)-5,5-difluoro-3-(trifluoromethyl)-3b,4,4a,5-tetrahydro-1H-cyclopropa[3,4]cyclopenta[1,2-c]pyrazol-1-yl)acetamido)-2-(3,5-difluorophenyl)ethyl)-2-(3-oxopiperazin-1-yl)thiazolo[4,5-b]pyridin-6-yl)-2-fluorobenzamide] | 88.3 nM |
